From ChEMBL document CHEMBL4823287, “Design and synthesis of novel 5-alkynyl pyrimidine nucleosides derivatives: Influence of C-6-substituent on antituberculosis activity” (2021)
Values after ≈ are worked out from the molar mass of the structure shown.

Assays:
Assay type in all cases: functional
[1] = tested on: Mycobacterium tuberculosis; assay: Antimycobacterial activity against Mycobacterium tuberculosis H37Ra assessed as inhibition of bacterial growth at 1 ug/ml measured by microplate alamar blue assay
[2] = tested on: Mycobacterium tuberculosis; assay: Antimycobacterial activity against Mycobacterium tuberculosis H37Ra assessed as inhibition of bacterial growth measured by microplate alamar blue assay
[3] = tested on: Mycobacterium tuberculosis; assay: Antimycobacterial activity against Mycobacterium tuberculosis H37Ra assessed as inhibition of bacterial growth at 100 ug/ml measured by microplate alamar blue assay
[4] = tested on: Mycobacterium tuberculosis; assay: Antimycobacterial activity against Mycobacterium tuberculosis H37Ra assessed as inhibition of bacterial growth at 10 ug/ml measured by microplate alamar blue assay
[5] = tested on: Mycobacterium tuberculosis; assay: Antimycobacterial activity against Mycobacterium tuberculosis H37Ra assessed as inhibition of bacterial growth at 50 ug/ml measured by microplate alamar blue assay
[6] = tested on: Mycobacterium tuberculosis; assay: Antimycobacterial activity against Mycobacterium tuberculosis H37Ra assessed as inhibition of bacterial growth at 1 to 5 ug/ml measured by microplate alamar blue assay; conditions: dose 1-5 µg/ml; at 1 to 5 µg/mL
[7] = tested on: Mycobacterium tuberculosis; assay: Antimycobacterial activity against Mycobacterium tuberculosis H37Ra assessed as inhibition of bacterial growth at 25 ug/ml measured by microplate alamar blue assay
[8] = tested on: Mycobacterium tuberculosis; assay: Antimycobacterial activity against Mycobacterium tuberculosis H37Ra assessed as inhibition of bacterial growth at 5 ug/ml measured by microplate alamar blue assay

Compound	inhibition at 1 µg/mL [1]	MIC50 [2]	inhibition at 100 µg/mL [3]	inhibition at 10 µg/mL [4]	inhibition at 50 µg/mL [5]	inhibition (percent inhibition of bacterial growth) [6]	inhibition at 25 µg/mL [7]	inhibition at 5 µg/mL [8]
CO[C@H]1/C=C/O[C@@]2(C)Oc3c(C)c(O)c4c(O)c(c(/C=N/N5CCN(C)CC5)c(O)c4c3C2=O)NC(=O)/C(C)=C\C=C\[C@H](C)[C@H](O)[C@@H](C)[C@@H](O)[C@@H](C)[C@H](OC(C)=O)[C@@H]1C [RIFAMPIN]	100%	0.7 µg/mL (≈ 0.851 µM)						
Cc1c(C#CC(O)c2ccccc2)c(=O)[nH]c(=O)n1[C@@H]1O[C@H](CO)[C@@H](O)[C@H]1O (stereo partly specified)	100%	0.6 µg/mL (≈ 1.54 µM)						
CCCC#Cc1c(C)n([C@@H]2O[C@H](CO)[C@@H](O)[C@H]2O)c(=O)[nH]c1=O		< 50 µg/mL	90%	0%	60%			
CCC#Cc1c(C)n([C@@H]2O[C@H](CO)[C@@H](O)[C@H]2O)c(=O)[nH]c1=O		50 µg/mL (≈ 161 µM)	90%	10%	50%			
CCCCCCC#Cc1c(C)n([C@@H]2O[C@H](CO)[C@@H](O)[C@H]2O)c(=O)[nH]c1=O		< 50 µg/mL	90%		70%			
Cc1c(C#Cc2ccccc2)c(=O)[nH]c(=O)n1[C@@H]1O[C@H](CO)[C@@H](O)[C@H]1O		2.6 µg/mL (≈ 7.26 µM)	90%	75%	75%	50%		
CCCCC#Cc1c(C)n([C@@H]2O[C@H](CO)[C@@H](O)[C@H]2O)c(=O)[nH]c1=O		17.7 µg/mL (≈ 52.3 µM)			100%	10%	60%	
NNC(=O)c1ccncc1 [ISONIAZID]	100%	0.8 µg/mL (≈ 5.83 µM)						
CC#Cc1c(C)n([C@@H]2O[C@H](CO)[C@@H](O)[C@H]2O)c(=O)[nH]c1=O		50 µg/mL (≈ 169 µM)	90%	10%	50%			
Cc1c(C#CC2CCCCC2)c(=O)[nH]c(=O)n1[C@@H]1O[C@H](CO)[C@@H](O)[C@H]1O		14.1 µg/mL (≈ 38.7 µM)			100%	10%	60%	
Cc1c(C#CCC(C)C)c(=O)[nH]c(=O)n1[C@@H]1O[C@H](CO)[C@@H](O)[C@H]1O		18.1 µg/mL (≈ 53.5 µM)			100%	10%	60%	
Cc1c(C#C[Si](C)(C)C)c(=O)[nH]c(=O)n1[C@@H]1O[C@H](CO)[C@@H](O)[C@H]1O			0%					
N[C@@H]1CONC1=O [CYCLOSERINE]		5.2 µg/mL (≈ 50.9 µM)		67%				50%
Cc1c(C#CC2CC2)c(=O)[nH]c(=O)n1[C@@H]1O[C@H](CO)[C@@H](O)[C@H]1O		2.3 µg/mL (≈ 7.14 µM)	90%	80%		50%		
